# Test results reported in patent publication US20230159532A1, “PARATHYROID HORMONE (PTH) RECEPTOR ANTAGONISTS AND USES THEREOF” (Crinetics Pharmaceuticals, Inc., priority 2021, published 2023).
# Target: T1, human PTHR1 receptor (Homo sapiens, UniProt Q03431)
# T1 construct: purchased Eurofins HTS030M
# T1 sequence (Q03431 27-593): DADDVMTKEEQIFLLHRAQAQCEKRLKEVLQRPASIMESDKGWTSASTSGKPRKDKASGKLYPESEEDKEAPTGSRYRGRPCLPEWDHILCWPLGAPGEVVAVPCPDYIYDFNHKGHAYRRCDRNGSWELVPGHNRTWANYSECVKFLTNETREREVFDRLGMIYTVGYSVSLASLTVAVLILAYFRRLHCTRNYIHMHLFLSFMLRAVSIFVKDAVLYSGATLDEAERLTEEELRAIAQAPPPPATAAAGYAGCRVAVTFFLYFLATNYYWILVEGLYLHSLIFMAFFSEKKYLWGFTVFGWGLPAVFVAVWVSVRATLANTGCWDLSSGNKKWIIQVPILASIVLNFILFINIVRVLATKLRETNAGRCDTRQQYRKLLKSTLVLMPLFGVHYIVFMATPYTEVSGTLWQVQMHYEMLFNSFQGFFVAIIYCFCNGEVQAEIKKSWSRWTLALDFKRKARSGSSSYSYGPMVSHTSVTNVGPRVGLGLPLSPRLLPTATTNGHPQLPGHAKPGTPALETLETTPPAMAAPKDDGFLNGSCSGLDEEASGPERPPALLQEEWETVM
# Test: Competitive antagonist binding assay for hPTH-R1 (radioactive competition binding, SPA beads)
# Conditions: human PTHR1 membranes, [125I]-[Nle8,18,Tyr34]-PTH(1-34) 0.2 nM, 90 minutes at room temperature; read-out: hPTHR1 Ki
# In short: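 Displacement of 0.2 nM radioiodinated [Nle8,18,Tyr34]-PTH(1-34) from membrane-bound human PTHR1 measured by scintillation proximity after 90 min at room temperature. Compounds typically 0-10,000 nM final, pH 7.4 HEPES/Mg/Ca buffer with BSA and detergent. Ki calculated from competition data.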
row,Structure (SMILES),Ki [nM]
1,"CN1C(=O)N(c2c(F)cc(NCCN)cc2F)c2cc(C#N)ccc2-c2cc(Cl)cnc21 [1-223, 10-{4-[(2-aminoethyl)amino]-2,6-difluorophenyl}-4-chloro-8-methyl-9-oxo-6,8,10-triazatricyclo[9.4.0.0^2,7]pentadeca-1(11),2(7),3,5,12,14-hexaene-13-carbonitrile]",< 100
2,"CCN1C(=O)N(c2c(F)cc(NCCN[C@H]3C[C@H](O)C3)cc2F)c2cc(C#N)ccc2-c2cc(C(F)(F)F)cnc21 [1-224, 10-{2,6-difluoro-4-[(2-{[(1r,3r)-3-hydroxycyclobutyl]amino}ethyl)amino]phenyl}-8-ethyl-9-oxo-4-(trifluoromethyl)-6,8,10-triazatricyclo[9.4.0.0^2,7]pentadeca-1(11),2(7),3,5,12,14-hexaene-13-carbonitrile]",< 100
3,"CCN1C(=O)N(c2c(F)cc(NCCNCCO)cc2F)c2cc(C)ccc2-c2cc(F)cnc21 [1-226, 10-[2,6-difluoro-4-({2-[(2-hydroxyethyl)amino]ethyl}amino)phenyl]-8-ethyl-4-fluoro-13-methyl-6,8,10-triazatricyclo[9.4.0.0^2,7]pentadeca-1(11),2(7),3,5,12,14-hexaen-9-one]",< 100
4,"CCN1C(=O)N(c2c(F)cc(NCCNCC(=O)O)cc2F)c2cc(C#N)ccc2-c2cc(C(F)(F)F)cnc21 [1-227, 2-{[2-({4-[13-cyano-8-ethyl-9-oxo-4-(trifluoromethyl)-6,8,10-triazatricyclo[9.4.0.0^2,7]pentadeca-1(11),2(7),3,5,12,14-hexaen-10-yl]-3,5-difluorophenyl}amino)ethyl]amino}acetic acid]",< 100
5,"CCN1C(=O)N(c2c(F)cc(NCCNCCOCCC(=O)O)cc2F)c2cc(C#N)ccc2-c2cc(Cl)cnc21 [1-229, 3-[2-({2-[(4-{4-chloro-13-cyano-8-ethyl-9-oxo-6,8,10-triazatricyclo[9.4.0.0^2,7]pentadeca-1(11),2(7),3,5,12,14-hexaen-10-yl}-3,5-difluorophenyl)amino]ethyl}amino)ethoxy]propanoic acid]",< 100
6,"CCN1C(=O)N(c2c(F)cc(NCCNC[C@H](O)c3ccccc3)cc2F)c2cc(C#N)ccc2-c2cc(Cl)cnc21 [1-230, 4-chloro-10-{2,6-difluoro-4-[(2-{[(2R)-2-hydroxy-2-phenylethyl]amino}ethyl)amino]phenyl}-8-ethyl-9-oxo-6,8,10-triazatricyclo[9.4.0.0^2,7]pentadeca-1(11),2(7),3,5,12,14-hexaene-13-carbonitrile]",< 100
7,"CCN1C(=O)N(c2c(F)cc(NCCN3CC[C@@H](O)C3)cc2F)c2cc(C#N)ccc2-c2cc(Cl)cnc21 [1-231, 4-chloro-10-[2,6-difluoro-4-({2-[(3R)-3-hydroxypyrrolidin-1-yl]ethyl}amino)phenyl]-8-ethyl-9-oxo-6,8,10-triazatricyclo[9.4.0.0^2,7]pentadeca-1(11),2(7),3,5,12,14-hexaene-13-carbonitrile]",< 100
8,"CCN1C(=O)N(c2c(F)cc(NCCN[C@@H](CCSC)C(=O)O)cc2F)c2cc(C#N)ccc2-c2cc(Cl)cnc21 [1-233, (2S)-2-({2-[(4-{4-chloro-13-cyano-8-ethyl-9-oxo-6,8,10-triazatricyclo[9.4.0.0^2,7]pentadeca-1(11),2(7),3,5,12,14-hexaen-10-yl}-3,5-difluorophenyl)amino]ethyl}amino)-4-(methylsulfanyl)butanoic acid]",< 100
9,"CCN1C(=O)N(c2c(F)cc(NC3CNC3)cc2F)c2cc(C#N)ccc2-c2cc(Cl)cnc21 [1-234, 10-{4-[(azetidin-3-yl)amino]-2,6-difluorophenyl}-4-chloro-8-ethyl-9-oxo-6,8,10-triazatricyclo[9.4.0.0^2,7]pentadeca-1(11),2(7),3,5,12,14-hexaene-13-carbonitrile]",< 100
10,"CCN1C(=O)N(c2c(F)cc(N3CC[C@H](NC)C3)cc2F)c2cc(C#N)ccc2-c2cc(Cl)cnc21 [1-235, 4-chloro-10-{2,6-difluoro-4-[(3S)-3-(methylamino)pyrrolidin-1-yl]phenyl}-8-ethyl-9-oxo-6,8,10-triazatricyclo[9.4.0.0^2,7]pentadeca-1(11),2(7),3,5,12,14-hexaene-13-carbonitrile]",< 100
11,"CCN1C(=O)N(c2c(F)cc(NCCNCC3CCCN3)cc2F)c2cc(C#N)ccc2-c2cc(Cl)cnc21 (centres unmarked) [1-238, 4-chloro-10-{2,6-difluoro-4-[(2-{[(pyrrolidin-2-yl)methyl]amino}ethyl)amino]phenyl}-8-ethyl-9-oxo-6,8,10-triazatricyclo[9.4.0.0^2,7]pentadeca-1(15),2(7),3,5,11,13-hexaene-13-carbonitrile]",< 100

# Now from value to compound:
row,Ki [nM],Structure (SMILES)
1,< 100,"CCN1C(=O)N(c2c(F)cc(NCCN[C@H]3C[C@H](O)C3)cc2F)c2cc(C#N)ccc2-c2cc(F)cnc21 [1-222, 10-{2,6-difluoro-4-[(2-{[(1r,3r)-3-hydroxycyclobutyl]amino}ethyl)amino]phenyl}-8-ethyl-4-fluoro-9-oxo-6,8,10-triazatricyclo[9.4.0.0^2,7]pentadeca-1(11),2(7),3,5,12,14-hexaene-13-carbonitrile]"
2,< 100,"CCN1C(=O)N(c2c(F)cc(NCCNCC(N)CO)cc2F)c2cc(C#N)ccc2-c2cc(Cl)cnc21 (centres unmarked) [1-225, 10-[4-({2-[(2-amino-3-hydroxypropyl)amino]ethyl}amino)-2,6-difluorophenyl]-4-chloro-8-ethyl-9-oxo-6,8,10-triazatricyclo[9.4.0.0^2,7]pentadeca-1(11),2(7),3,5,12,14-hexaene-13-carbonitrile]"
3,< 100,"CCN1C(=O)N(c2c(F)cc(NCCNCCN3CCNC3=O)cc2F)c2cc(C#N)ccc2-c2cc(Cl)cnc21 [1-228, 4-chloro-10-{2,6-difluoro-4-[(2-{[2-(2-oxoimidazolidin-1-yl)ethyl]amino}ethyl)amino]phenyl}-8-ethyl-9-oxo-6,8,10-triazatricyclo[9.4.0.0^2,7]pentadeca-1(11),2(7),3,5,12,14-hexaene-13-carbonitrile]"
4,< 100,"CCN1C(=O)N(c2c(F)cc(NCCN[C@H]3C[C@@H](O)C3)cc2F)c2cc(C#N)ccc2-c2cc(F)cnc21 [1-232, 10-{2,6-difluoro-4-[(2-{[(1s,3s)-3-hydroxycyclobutyl]amino}ethyl)amino]phenyl}-8-ethyl-4-fluoro-9-oxo-6,8,10-triazatricyclo[9.4.0.0^2,7]pentadeca-1(11),2(7),3,5,12,14-hexaene-13-carbonitrile]"
5,< 100,"CCN1C(=O)N(c2c(F)cc(NCCN[C@H](C)C(=O)O)cc2F)c2cc(C#N)ccc2-c2cc(Cl)cnc21 [1-236, (2R)-2-({2-[(4-{4-chloro-13-cyano-8-ethyl-9-oxo-6,8,10-triazatricyclo[9.4.0.0^2,7]pentadeca-1(11),2(7),3,5,12,14-hexaen-10-yl}-3,5-difluorophenyl)amino]ethyl}amino)propanoic acid]"
6,< 100,"CCN1C(=O)N(c2c(F)cc(NCCNCCN)cc2F)c2cc(C#N)ccc2-c2cc(F)cnc21 [1-237, 10-[4-({2-[(2-aminoethyl)amino]ethyl}amino)-2,6-difluorophenyl]-8-ethyl-4-fluoro-9-oxo-6,8,10-triazatricyclo[9.4.0.0^2,7]pentadeca-1(11),2(7),3,5,12,14-hexaene-13-carbonitrile]"
